Columns and labels:
[1] = test system: HL60 cells; assay: Rat HL60/estradiol tumor model with magnetic field exposure, cancer cell count in blood; type: in vivo
Description: (§1) Efficacy studies of BMND were conducted in a rat model. Rats were injected with HL60 cells and estradiol to induce the generation of tumors on various organs. This is a well-established rat model of human tumors. The positive control comprised six healthy rats with no tumor induction and no drug treatment. The negative control comprised six tumor bearing rats with no drug treatment. The test groups included six rats in each group, all induced for tumors, and treated with either paclitaxel (gold standard chemotherapeutic; 40 mg/KG body weight), anti-HL60-BMND at 100 μg/kG body weight, or anti-HL60-BMND at 200 μg/KG body weight.
(§2) Procedure: Rats were inoculated with estradiol-17ß (1.7 mg/pellet) before an injection of 1×10^7 HL60 cells intravenously into tail vein. If tumor observed at various organs, the tumor size could be measured in three dimensions with calipers every 2 days starting at day 7. If tumor was not observed/not palpable, then tumor induction was confirmed by histopathology. […] After confirmation of tumor induction by histopathology, treatment was started.
The rats were exposed to magnetic field according to the following protocol. Rats strapped to the VFVF magnetizer as described above. The device was switched on to apply magnetic force of known intensity, frequency and duration to cause “flip/flop” action in the biocompatible magnetic nanodiscs. This application of oscillating field force is expected to cause the Nanomagnetic particles bound to the cell to “flip/flop.” This action is expected to damage the cell wall leading to apoptosis. The following parameters were recorded: Treatment Time—60 minutes; Magnetic field intensity—90 G (Gauss); Frequency—20 Hz. Waveform—sinusoidal
Cancer cell count in blood was ascertained for the treatment groups.

[2] = test system: HL60 cells; assay: Rat HL60/estradiol tumor model with magnetic field exposure, tumor histopathology (H&E); type: in vivo; settings: paclitaxel treated group, 40 mg/kg body weight; H&E 400×
Description: as §1, §2
The rats were exposed to magnetic field according to the following protocol. […] The following parameters were recorded: Treatment Time—60 minutes; Magnetic field intensity—90 G (Gauss); Frequency—20 Hz. […]
Confirmation of tumor was assessed as follows: Formalin fixed tissue of tumor area samples from various organs were received. […]

[3] = Paclitaxel 40 mg/kg body weight
[4] = STD group (Paclitaxel 40 mg/kg), baseline

CC(=O)O[C@H]1C(=O)[C@@]2(C)[C@H]([C@H](OC(=O)c3ccccc3)[C@]3(O)C[C@H](OC(=O)[C@H](O)[C@@H](NC(=O)c4ccccc4)c4ccccc4)C(C)=C1C3(C)C)[C@]1(OC(C)=O)CO[C@@H]1C[C@@H]2O [Paclitaxel]
Apoptotic cancer cells present per ml in the blood, After treatment 144 hrs [1, 3]: 5.20 × 10^3 per ml in the blood
Viable cancer cells present per ml of blood, After treatment 144 hrs [1, 3]: 5.47 × 10^3 per ml of blood
Apoptotic cancer cells present per ml in the blood, Before treatment [1, 4]: 852 per ml in the blood
Viable cancer cells present per ml of blood, Before treatment [1, 4]: 16.08 × 10^3 per ml of blood
tumor histopathology (FIG. 8C) [2]: neoplastic cells (small arrow) with stromal reaction, mitotic figures (arrow head), inflammation and necrosis (large arrow)

Source: US12544442B2, “Biocompatible nanomagnetic discs and methods of use thereof” (priority 2018, dated 2026)
